Antivial activity, MCC and minimal effective concentration data for six compounds are collected here from patent EP0442744A2, “Treatment of viral disease by glycosides” (TSUMURA & CO., priority 1990, dated 1991).

The test system of one data set is Herpes simplex virus. The data set can be described thus: Herpes virus inhibition experiment in FL cells (polykaryotic giant cell count). The conditions noted are these: for minimal effective concentration: minimum concentration showing no polykaryotic giant cells after 24 hours, FL cells infected with Herpes simplex virus, read-out: Antivial activity. Type of data set: cell-based.

A short description of a further data set: in vitro. As to conditions: human, fl cells.
Data set [1] is described as follows: Cytotoxicity in FL cells (experiment repeated without the virus). As to conditions: human.
Description: (§1) When the experiment was started, the medium was removed from the dishes and a suspension (1 ml) containing Herpes simplex virus at the predetermined concentration in the medium was added to the dishes. The dishes were incubated in an incubator under the humidified air containing 5% CO₂ at 36°C for one hour to allow the adsorption of the viruses. Then the medium was removed and a fresh medium containing the test compounds was added. After 24 hours, the number of polykaryotic giant cells in each dish was counted and the minimum concentration showing no polykaryotic giant cells was taken as the antivirally active concentration to the herpes virus. The experiment was repeated without the virus and the minimum concentration at which cells died was taken as the cytotoxic concentration.

Description for Herpes simplex virus: as §1
Description for in vitro: as §1

In the data set with Herpes simplex virus, `C[C@]12CC[C@H](O)C[C@H]1CC[C@@H]1[C@@H]2CC[C@]2(C)[C@@H](c3ccc(=O)oc3)CC[C@]12O` [Compound 7, 3,14-dihydroxybufa-20,22-dienolide] registered an Antivial activity of 8 ng/mL. Besides, in the data set “in vitro”, the MCC at 24 h is 0.5 µg/mL.

`C[C@@H]1O[C@@H](O[C@H]2CC[C@]3(C=O)[C@H]4CC[C@]5(C)[C@@H](C6=CC(=O)OC6)CC[C@]5(O)[C@@H]4CC[C@]3(O)C2)[C@H](O)[C@H](O)[C@H]1O` [Compound 6, 3β-[(6-deoxy-α-L-mannopyranosyl)oxy]-5,14-dihydroxy-19-oxo-5β-card-20(22) enolide]: the minimal effective concentration in the data set on Herpes simplex virus was 0.025 µg/mL. In data set [1], this compound returned an MCC of 0.38 µg/mL.

On to `C[C@H]1O[C@@H](O[C@H]2[C@@H](O)C[C@H](O[C@H]3[C@@H](O)C[C@H](O[C@H]4CC[C@@]5(C)[C@H](CC[C@@H]6[C@@H]5C[C@@H](O)[C@]5(C)[C@@H](C7=CC(=O)OC7)CC[C@]65O)C4)O[C@@H]3C)O[C@@H]2C)C[C@H](O)[C@@H]1O` [Compound 2, 3-[(O-2,6-dideoxy-β-D-ribo-hexopranoxyl-(1→4)-O-2,6-dideoxy-β-D-ribo-hexopyranosyl-(1→4)-2,6-dideoxy-β-D-ribo-hexopyranosyl)-oxy]-12,14-dihydroxycard-(20)22-enolide], for which the minimal effective concentration in the data set with Herpes simplex virus amounted to 0.05 µg/mL. In data set [1], the MCC came out at 0.48 µg/mL.

On to `C[C@H]1O[C@@H](O[C@H]2[C@@H](O)C[C@H](O[C@H]3[C@@H](O)C[C@H](O[C@H]4CC[C@@]5(C)[C@H](CC[C@@H]6[C@@H]5CC[C@]5(C)[C@@H](C7=CC(=O)OC7)CC[C@]65O)C4)O[C@@H]3C)O[C@@H]2C)C[C@H](O)[C@@H]1O` [Compound 1, 3-[(O-2,6-dideoxy-β-D-ribo-hexopranoxyl-(1→4)-O-2,6-dideoxy-β-D-ribo-hexopyranosyl-(1→4)-2,6-dideoxy-β-D-ribo-hexopyranosyl)-oxy]-14-hydroxycard-(20)22-enolide], for which, in the data set with Herpes simplex virus, the minimal effective concentration stood at 0.025 µg/mL. Moreover, in data set [1], the MCC stood at 0.48 µg/mL.

For `C[C@H]1O[C@@H](O[C@H]2CC[C@]3(C=O)[C@H]4CC[C@]5(C)[C@@H](C6=CC(=O)OC6)CC[C@]5(O)[C@@H]4CC[C@]3(O)C2)C[C@H](O)[C@@H]1O` [Compound 5], in the data set with Herpes simplex virus, the minimal effective concentration was 0.03 µg/mL. This compound registered an MCC in data set [1] of 0.46 µg/mL.

In the case of `C[C@@H]1O[C@@H](O[C@H]2C[C@@H](O)[C@]3(CO)[C@H]4[C@H](O)C[C@]5(C)[C@@H](C6=CC(=O)OC6)CC[C@]5(O)[C@@H]4CC[C@]3(O)C2)[C@H](O)[C@H](O)[C@H]1O` [Compound 4, 3-[(6-deoxy-α-L-mannopyranosyl)oxy]-1,5,11α, 14,19-pentahydroxycard-20(22) enolide], in the data set with Herpes simplex virus, the minimal effective concentration stood at 0.04 µg/mL. In addition, the MCC in data set [1] came out at 0.46 µg/mL.
